Laboratory results as given in the supplement of paper PMC10307832.

Experiments:
Assay in all cases: relative viability (nuclei count vs DMSO), 5 days (fraction); higher = more cells survive
Tozasertib + Linsitinib = compound: Cc1cc(Nc2cc(N3CCN(C)CC3)nc(Sc3ccc(NC(=O)C4CC4)cc3)n2)n[nH]1 [Tozasertib] + C[C@]1(O)C[C@@H](c2nc(-c3ccc4ccc(-c5ccccc5)nc4c3)c3c(N)nccn32)C1 [Linsitinib] (partner 1 µM)
Method in brief: (§1)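 Lung cancer cell lines were seeded in 1536-well plates and dosed by pin tool the next day, with either a single drug or a fixed anchor-drug dose combined with five library-drug doses (not always all listed) spaced in √10 steps. Five days later, one step fixed the cells and stained their nuclei (final 0.05% Triton X-100, 1% formaldehyde, 1 ug/ml Hoechst), and nuclei were counted on 4× images. Relative viability is the nuclei count in treated wells divided by the count in vehicle wells, and each value is the median of duplicate plates.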

Tozasertib + Pictilisib = compound: Cc1cc(Nc2cc(N3CCN(C)CC3)nc(Sc3ccc(NC(=O)C4CC4)cc3)n2)n[nH]1 [Tozasertib] + CS(=O)(=O)N1CCN(Cc2cc3nc(-c4cccc5[nH]ncc45)nc(N4CCOCC4)c3s2)CC1 [Pictilisib] (partner 1 µM)
Method in brief: as §1

Tozasertib + Foretinib = compound: Cc1cc(Nc2cc(N3CCN(C)CC3)nc(Sc3ccc(NC(=O)C4CC4)cc3)n2)n[nH]1 [Tozasertib] + COc1cc2c(Oc3ccc(NC(=O)C4(C(=O)Nc5ccc(F)cc5)CC4)cc3F)ccnc2cc1OCCCN1CCOCC1 [Foretinib] (partner 0.25 µM)
Method in brief: as §1

Tozasertib + Olaparib = compound: Cc1cc(Nc2cc(N3CCN(C)CC3)nc(Sc3ccc(NC(=O)C4CC4)cc3)n2)n[nH]1 [Tozasertib] + O=C(c1cc(Cc2n[nH]c(=O)c3ccccc23)ccc1F)N1CCN(C(=O)C2CC2)CC1 [Olaparib] (partner 8 µM)
Method in brief: as §1

Tozasertib + Crizotinib = compound: Cc1cc(Nc2cc(N3CCN(C)CC3)nc(Sc3ccc(NC(=O)C4CC4)cc3)n2)n[nH]1 [Tozasertib] + C[C@@H](Oc1cc(-c2cnn(C3CCNCC3)c2)cnc1N)c1c(Cl)ccc(F)c1Cl [Crizotinib] (partner 1 µM)
Method in brief: as §1

Cell Line	relative viability (Tozasertib + Linsitinib; first compound 0.004 µM)	relative viability (Tozasertib + Linsitinib; first compound 0.01265 µM)	relative viability (Tozasertib + Linsitinib; first compound 0.04 µM)	relative viability (Tozasertib + Linsitinib; first compound 0.1265 µM)	relative viability (Tozasertib + Pictilisib; first compound 0.004 µM)	relative viability (Tozasertib + Pictilisib; first compound 0.01265 µM)	relative viability (Tozasertib + Pictilisib; first compound 0.04 µM)	relative viability (Tozasertib + Pictilisib; first compound 0.1265 µM)	relative viability (Tozasertib + Foretinib; first compound 0.004 µM)	relative viability (Tozasertib + Foretinib; first compound 0.01265 µM)	relative viability (Tozasertib + Foretinib; first compound 0.04 µM)	relative viability (Tozasertib + Foretinib; first compound 0.1265 µM)	relative viability (Tozasertib + Olaparib; first compound 0.004 µM)	relative viability (Tozasertib + Olaparib; first compound 0.01265 µM)	relative viability (Tozasertib + Olaparib; first compound 0.04 µM)	relative viability (Tozasertib + Olaparib; first compound 0.1265 µM)	relative viability (Tozasertib + Crizotinib; first compound 0.004 µM)	relative viability (Tozasertib + Crizotinib; first compound 0.01265 µM)	relative viability (Tozasertib + Crizotinib; first compound 0.04 µM)	relative viability (Tozasertib + Crizotinib; first compound 0.1265 µM)
HCC-78	0.661	0.452	0.588	0.439	0.235	0.203	0.202	0.171	0.678	0.708	0.587	0.466	0.885	0.705	0.98	0.758	0.333	0.324	0.356	0.288
HCC-366	0.766	0.6	0.755	0.101	0.106	0.135	0.122	0.0817		0.912	0.63	0.0962	0.333	0.333	0.312	0.127		0.472	0.257	0.039
HCC-827	1.02	1		0.84	0.872	0.999	1.14	0.918	0.996	1.03	1.13	0.758	0.684	0.577	0.723	0.624	1.02	0.82	0.927	0.719
HOP-62	1.05	0.876		1.09	0.741	0.605	0.926	0.565	0.953	1.07	1.06	0.915	0.699	0.436	0.458	0.288	1.03	0.964	0.941	0.776
LC-2-ad	0.906	0.82	0.684	0.329	0.505	0.516	0.427	0.127	0.812		1.04	0.609	0.732	0.677	0.602	0.608	0.441	0.452	0.405	0.369
LCLC-97TM1		0.204	0.155	0.163		0.181	0.222	0.11	1.03	0.895	0.95	0.695	0.53	0.381	0.335	0.231		0.288	0.257	0.189
LCLC-103H	1.07	1.03	0.987	1.34	0.694	0.568	0.634	0.498	0.81	0.78	0.713	0.416	0.782	0.811	0.772	0.734	0.993	1.05	1.1	1.07
LK-2	0.639	0.541	0.442	0.272	0.715		0.61	0.359	1.51	0.927	1.34	0.267	0.753	0.715	0.77	0.326	0.19		0.239	0.244
LOU-NH91	0.573	0.954	1.03	0.947	0.541	0.526	0.513	0.48		0.923	1.02	0.918	0.781	0.916	0.937	0.922	0.619	0.703	0.754	0.722
LU99A	0.655	0.448	0.412	0.292	0.338	0.339	0.3	0.216	0.798	0.629	0.796	0.487	0.251	0.212	0.26	0.251	0.627	0.514	0.466	0.27
LXF-289	0.994	0.883	0.868	0.554	0.835	0.828	0.778	0.789	1.06	0.963	0.912	0.739	1.08	0.942	0.792	0.644		0.758	0.717	0.161
NCI-H522													0.619		0.603	0.531				
NCI-H1395	1.57	0.974	1.16	0.75	0.657	0.528	0.604	0.469	0.951	0.864	0.972	0.838	0.435	0.492	0.407	0.414				
NCI-H1563	1.26	1.2	1.14	1.12	0.61	0.641	0.684	0.53	0.892	0.919	0.918	0.92					0.843	0.843	0.934	0.84
NCI-H1650					0.589	0.557	0.639	0.204	1.26	1.28	1.1	0.879	0.818	0.721	0.885	0.722		1.01	0.919	
NCI-H1792	0.461	0.398	0.528	0.331	0.297	0.203	0.241	0.167					0.456	0.435	0.707	0.314	0.951	0.9	1.16	0.913
NCI-H1793	0.909	0.764	0.853	0.625	0.396	0.357	0.351	0.261		0.56	0.596	0.389	0.918	0.778	0.974	0.533				
NCI-H2170					0.3	0.327	0.295	0.276	0.985	0.591		0.907	0.566	0.636	0.572	0.519	1.15	1.19	1.02	0.736
NCI-H2342									0.949	0.997	1.02	0.908	0.43	0.44	0.471	0.443				
